The results in this text go back to patent publication US20240301023A1 (priority 2020, published 2024).

Where two headings read alike, the source gives them in different places. Square brackets hold non-standard residues; d marks the D form. Peptide text beside a SMILES is read from it. Sar = CNCC(=O)O

Series [1] has as its target T1, bovine pancreatic trypsin (Bos taurus, UniProt P00760).
T1 construct: from tissue; host or cells: bovine pancreas
T1 sequence (P00760 24-246): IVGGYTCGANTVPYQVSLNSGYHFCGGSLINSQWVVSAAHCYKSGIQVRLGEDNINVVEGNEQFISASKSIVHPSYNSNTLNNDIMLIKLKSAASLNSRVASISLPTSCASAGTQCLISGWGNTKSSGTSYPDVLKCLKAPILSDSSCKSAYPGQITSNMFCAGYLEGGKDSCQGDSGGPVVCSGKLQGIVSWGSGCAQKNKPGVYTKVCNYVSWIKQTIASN
Kind of series: Stability in bovine trypsin. The conditions noted are these: bovine pancreatic trypsin solution; bovine pancreatic trypsin 2.5 μg/mL, NH4HCO3 buffer pH 8-8.5, 37° C., 100 μM peptide. It is filed as in vitro ADME. The procedure:
The stability of the peptides was analysed in typsin, plasma and water. Stability of linear peptides is generally low due to rapid degradation by endogenous peptidases and proteases. While stability in bodily fluids is important, absolute stability may not be prudent or desirable due to potential build-up in vivo leading to adverse side effects, and/or hazards to the environment and recirculation of exceptionally stable compounds in waterways. Thus, compounds that are extremely stable in either plasma or typsin are not generally considered “drug-like”.
Stability in bovine trypsin was analysed for SEQ ID Nos. 2 to 7 and 11 to 17. Peptides were added to trypsin solution (bovine pancreatic trypsin 2.5 μg/mL in NH4HCO3 buffer, pH approximately 8-8.5, 37° C.) in a water bath with final concentrations of 100 μM peptide. A 50 μL sample was taken immediately and precipitated in 150 μL of cold acetonitrile (9:1 acetonitrile:water) This sample became the baseline, or t=0 min sample. The trypsin peptide mixture was immediately returned to the water bath and subsequent 50 μL samples were taken at 5, 10, 15, 30, 60 and 120 min. At each time point, the 50 μL sample was collected and immediately added to cold acetonitrile (ACN). Each sample was vortexed for 30 sec and then centrifuged at room temperature (RT) (13K rpm, 5 min). 150 μL of the supernatant was taken and directly place in a glass HPLC vial for LCMS analysis.

A short description of a further series: Stability in water. It is filed as physicochemical. The following applies: ultra-pure Milli-Q water. The procedure:
Stability in water was carried out by incubating each candidate in ultra-pure, Milli-Q water (Millipore Corporation). Again, volumes, times and preparation protocols were exactly as described above in plasma stability method above.

For series [2], the target named is Kappa opioid receptor (KOR) (Homo sapiens, UniProt P41145). Kind of series: cell-based. Type of series: cell-based.
Series [3] concerns the target Delta opioid receptor (DOR) (Homo sapiens, UniProt P41143). Kind of series: cell-based. Type of series: cell-based.
Another series in a line: Stability in rat plasma. Type of series: in vitro ADME. The following applies: both sexes, Wistar, 37° C., 100 μM peptide. How it is done:
Stability in plasma was assessed in rat plasma. Plasma was collected in-house from adult mixed-gender Wistar rats, prepared using 2% EDTA as per standard practice. Peptides were added to the rat plasma samples at 37° C. in a water bath with final concentrations of 100 μM (1:9 peptide in water:plasma). The assay was then carried out in the same manner as the assay in bovine trypsin.

In another series the target is Mu opioid receptor (MOR) (Homo sapiens, UniProt P35372). Put plainly: cell-based. Type of series: cell-based.
For the next series, the target named is KOPr (Homo sapiens, UniProt P41145). Type of series: cell-based.
The target in the next series is KOR (Homo sapiens, UniProt P41145). Put plainly: cell-based. Type of series: cell-based.
KOR, sequence (P41145 whole entry): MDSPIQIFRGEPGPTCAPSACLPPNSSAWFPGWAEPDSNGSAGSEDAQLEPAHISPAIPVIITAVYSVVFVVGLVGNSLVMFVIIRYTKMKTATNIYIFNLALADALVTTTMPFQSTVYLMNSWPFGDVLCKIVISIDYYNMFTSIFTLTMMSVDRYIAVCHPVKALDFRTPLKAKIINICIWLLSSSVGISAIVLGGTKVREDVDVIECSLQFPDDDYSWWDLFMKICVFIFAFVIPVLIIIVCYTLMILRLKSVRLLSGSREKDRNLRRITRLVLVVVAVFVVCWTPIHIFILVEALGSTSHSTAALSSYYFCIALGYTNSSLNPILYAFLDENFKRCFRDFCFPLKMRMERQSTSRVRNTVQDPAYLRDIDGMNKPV

Kappa opioid receptor (KOR), sequence (P41145 whole entry): as above
Mu opioid receptor (MOR), sequence (P35372 whole entry): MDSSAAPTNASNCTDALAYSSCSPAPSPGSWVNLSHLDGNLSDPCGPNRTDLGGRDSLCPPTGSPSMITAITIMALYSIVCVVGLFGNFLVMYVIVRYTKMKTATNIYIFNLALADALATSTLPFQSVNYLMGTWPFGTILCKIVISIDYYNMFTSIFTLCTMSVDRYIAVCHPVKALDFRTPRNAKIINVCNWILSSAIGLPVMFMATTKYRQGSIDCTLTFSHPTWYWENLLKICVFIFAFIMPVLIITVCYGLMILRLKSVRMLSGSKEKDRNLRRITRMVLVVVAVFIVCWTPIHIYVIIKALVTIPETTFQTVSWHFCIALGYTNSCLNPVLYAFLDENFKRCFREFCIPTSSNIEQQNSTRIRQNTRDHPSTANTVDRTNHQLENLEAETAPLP
Delta opioid receptor (DOR), sequence (P41143 whole entry): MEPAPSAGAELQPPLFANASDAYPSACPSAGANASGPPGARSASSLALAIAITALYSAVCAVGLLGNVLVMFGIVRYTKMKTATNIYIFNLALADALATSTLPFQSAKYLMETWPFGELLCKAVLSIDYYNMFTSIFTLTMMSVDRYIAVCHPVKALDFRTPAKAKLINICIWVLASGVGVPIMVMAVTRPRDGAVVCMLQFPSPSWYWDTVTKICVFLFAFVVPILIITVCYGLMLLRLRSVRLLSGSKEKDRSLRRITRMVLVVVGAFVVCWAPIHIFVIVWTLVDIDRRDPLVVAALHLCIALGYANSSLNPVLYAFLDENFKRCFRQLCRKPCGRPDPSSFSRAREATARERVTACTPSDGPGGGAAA
KOPr, sequence (P41145 whole entry): as the sequence (P41145 whole entry) above

Broadly, the half-life is the time needed for the level to fall by half in the phase considered. Read a high half-life as slow loss. In general, EC50 refers to the midpoint of the concentration-response curve. Molecule `CC(C)C[C@H](NC(=O)[C@H](Cc1ccccc1)NC(=O)CN(C)C(=O)[C@@H](N)Cc1ccc(O)cc1)C(=O)N[C@@H](CCCNC(=N)N)C(=O)N[C@@H](CCCNC(=N)N)C(N)=O` [SEQ ID NO. 2, NH2-Tyr-Sar-Phe-Leu-Arg-Arg-NH2] (H-Y[Sar]FLRR-NH2) had a half-life at 100 µM in series [1] of 0.03 h. The half-life at 100 µM in “Stability in water” was over 16.7 h. Moreover, in series [2], the “cAMP assay KOR 1 μM” value worked out at 21.65 and the “cAMP assay KOR 10 μM” value came to 32.41. In series [3], the EC50 is over 10000 nM, the “cAMP assay DOR 1 μM” value is −0.47 and the “cAMP assay DOR 10 μM” value is on record as 21.96. Besides, the half-life at 100 µM in the series “Stability in rat plasma” is 1.61 h. Also, at Mu opioid receptor (MOR), the EC50 turned out to be 6700 nM, the “cAMP assay MOR 1 μM” value is −2.5 and the “cAMP assay MOR 10 μM” value was found to be 12.41.
`CC(C)C[C@@H](NC(=O)[C@@H](Cc1ccccc1)NC(=O)[C@H](N)Cc1ccccc1)C(=O)N[C@H](CCCCN)C(=O)N1CCC(N)(C(=O)O)CC1` [SEQ ID NO. 35, DPhe-DPhe-DLeu-DLys-Cap-CO2H, reference compound] displayed a half-life at 100 µM in series [1] of 17.6 h. For the same molecule, in “Stability in water”, the half-life at 100 µM was over 16.7 h. In addition, on KOPr, the “bias factor (β) relative to U50488H” value is “no bias either way”; the pERK1/2 activity result was “time and concentration dependent pERK expression”. Moreover, in series [2], the “cAMP assay KOR 1 μM” value came out at 25.93 and the “cAMP assay KOR 10 μM” value is given as 34.61. Also, the “KOR desensitisation (change of cAMP maximal response after pre-treatment)” value at KOR was “significant reduction maximal effect”. Besides, in series [3], the EC50 is over 10000 nM, the “cAMP assay DOR 1 μM” value is reported as −5.72 and the “cAMP assay DOR 10 μM” value is recorded as 3.27. The half-life at 100 µM in the series “Stability in rat plasma” amounted to 10.8 h. Moreover, on Mu opioid receptor (MOR), the EC50 is over 10000 nM, the “cAMP assay MOR 1 μM” value is 0.37 and the “cAMP assay MOR 10 μM” value worked out at 8.07.
In “Stability in water”, `CC(C)C[C@H](NC(=O)[C@H](Cc1ccccc1)NC(=O)CNC(=O)CNC(=O)[C@@H](N)Cc1ccc(O)cc1)C(=O)N[C@@H](CCCNC(=N)N)C(=O)N[C@@H](CCCNC(=N)N)C(=O)O` [SEQ ID NO. 38, Tyr-Gly-Gly-Phe-Leu-Arg-Arg, reference compound] had a half-life at 100 µM of over 16.7 h. Also, the “KOR desensitisation (change of cAMP maximal response after pre-treatment)” value at KOR was “did not show any desensitisation”. In addition, the half-maximal effective concentration (EC50) in series [3] (read-out: Activity (EC50, nM) DOR) is 870 nM; on Mu opioid receptor (MOR) (read-out: Activity (EC50, nM) MOR), 3740 nM.
